Tests used:
[1] = test system: Melan-a cells, that is, mouse melanocytes; assay: Melanin production inhibition by biarylamide derivatives in melan-a cells (Example 2-2); format: cell-based; details: 30 mM derivative, 10 μl per day for 3 days, final concentration 300 μM, absorbance 400 nm
Method: Melan-a cells, that is, mouse melanocytes, were inoculated onto a 24-well culture plate (10^5 cells), and cultured in RPMI1640 medium including fetal bovine serum (FBS) 10% and 200 nM of phorbol 12-myristate 13-acetate (TPA) for 24 hours. Then, in each well, 990 μl of RPMI1640 medium including FBS 10% and 200 nM TPA was treated with 30 mM of the inventive biarylamide derivative (10 μl per day for 3 days) (final concentration 300). The last day of treatment, the cells were washed with Phosphate buffered saline (PBS) three times, lysed with 1 ml of 1M sodium hydroxide (NaOH) solution, and measured using ELISA Leader at absorbance of 400 nm.

[2] = test system: Melan-a cells, that is, mouse melanocytes; assay: Melanin production inhibition by A3/B5 in melan-a cells, with cell viability (Example 3); format: cell-based; details: A3/B5 treatment per day for 3 days, final concentration 1, 10, and 25 (unit not given), FIG. 1A
Method: (§1) In order to examine the effect of A3/B5 on melanin inhibition, the degree of melanin production was analyzed using melan-a cells, that is, mouse melanocytes and human normal melanocytes. Melanocytes were inoculated onto a 24-well culture plate (10^5 cells) and cultured in RPMI1640 medium including fetal bovine serum (FBS) 10% and 200 nM of phorbol 12-myristate 13-acetate (TPA) for 24 hours. Then, in each well, 990 μl of RPMI1640 medium including FBS 10% and 200 nM TPA was treated with
(§2) 100, 1000, and 2500 of A3/B5 (10 μl per day for 3 days) (final concentration 1, 10, and 25). The last day of treatment, the cells were washed with Phosphate buffered saline (PBS) three times, lysed with 1 ml of 1M sodium hydroxide (NaOH) solution, and measured using ELISA Leader at absorbance of 400 nm. Additionally, in order to determine if the inhibition of melanin production is caused by apoptosis, cell viability was examined under the same condition as described above. For this, The last day of treatment, the cells were washed with phosphate buffered saline (PBS) three times, and the cells in each well were stained with 200 μl of Crystal Violet (0.1%, EtOH 10%, PBS 89.9%) for 5 minutes, washed with phosphate buffer, lysed in 1 ml of ethanol solution, and measured at absorbance of 590 nm. Further, this experiment was performed for human normal melanocytes in the same manner.

[3] = test system: human normal melanocytes; assay: Melanin production inhibition by A3/B5 in human normal melanocytes (Example 3); format: cell-based; details: A3/B5 treatment per day for 3 days, final concentration 1, 10, and 25 (unit not given), FIG. 1B
Method: as §1, §2

[4] = test system: TRP-2 (Tyrosinase related protein-2, Dopachrom tautomerase); assay: TRP-2 expression in melan-a cells by western blotting (Example 4); format: cell-based, mouse; details: 50 uM
Method: In order to examine the effects of A3/B5 on TRP-2 expression, mouse melanocytes (melan-a) were cultured in RPMI1640 medium including fetal bovine serum (FBS) 10% and 200 nM of phorbol 12-myristate 13-acetate (TPA) for 24 hours, and treated with A3/B5 at a concentration of 50 uM (per day for 3 days). In order to determine the expression level of TRP-2 over 3 days, each test group was lysed in RIPA buffer solution containing 2 mM EDTA, 137 mM NaCl, 20 mM Tris-HCl (pH 8.0), 1 mM sodium vanadate, 10 mM NaF, 1 mM PMSF (phenylmethanesulfonyl fluoride), 1% NP-40, 10% glycerol and a protease inhibitor cocktail, and protein was separated by SDS-PAGE electrophoresis using 10% acrylamide gel. This was transferred to a nylon membrane, and TRP-2 protein was analyzed by anti TRP-2 antibody (santacuz, US) and anti-Rabbit IgG horse Radish Peroxidase (HRP) conjugation antibody (1;10000, zymed) as a secondary antibody. This was detected by Chemiluminescence reagent kit (ECL, Amersham, US) and then imaged using RAS 3000 Imaging system (FUJI film, Japan) as an image analyzer. Further, in a case where the cells were treated with A3B5 once on the first day of 3 consecutive days, the expression level of TRP-2 over 3 days was also analyzed in the same manner as described above.

[5] = test system: A375 human melanoma cell lines; assay: A375 melanoma cell growth inhibition, BrdU cell proliferation assay (Example 5); format: cell-based; details: respective concentrations, 48 hours, absorbance 450 nm, FIG. 3
Method: A375 cells were inoculated onto a 96 well plate (3×10^3 cells), and cultured in DMEM containing fetal bovine serum (FBS) 10% for 16 hours, and then treated with A3/B5 at respective concentrations, and cultured for 48 hours. Then, by using BrdU cell proliferation assay kit (Roche, Germany), the degree of cell growth inhibition by A3/B5 was examined.

[6] = test system: B16F10 mouse melanoma cell; assay: B16F10 melanoma cell proliferation in hairless mouse model (Example 6); format: in vivo; details: hairless mice; 100 μl of 1 mM A3/B5 injected into the cell region for 5 days; sectioned on 6th day; FIG. 4
Method: In order to examine the effect of A3/B5 on the inhibition of melanoma cell proliferation, into the back of 5 hairless mice, at both sides of subcutaneous tissues, 5×10^5 B16F10 cells (B16F10 mouse melanoma cell) were injected. Then, 48 hours later, into the region injected with the cells, 100 μl of A3/B5 diluted with phosphate buffer solution to a concentration of 1 mM, and 100 μl of phosphate buffer solution as a control, were injected for 5 days, respectively. On the 6th day, the injected cell region was sectioned and its size and weight were analyzed.

## Cc1ccc(C(=O)Nc2cccc(C)c2)cc1 [A1/B3, 4-methyl-N-m-tolylbenzamide]
[1]
  Reduction rate of melanin(%): 32.6%

## CCc1ccc(C(=O)Nc2cccc(C)c2)cc1 [A1/B4, 4-ethyl-N-m-tolylbenzamide]
[1]
  Reduction rate of melanin(%): 23.3%

## COc1ccc(C(=O)Nc2cccc(C)c2)cc1 [A1/B6, 4-methoxy-N-m-tolylbenzamide]
[1]
  Reduction rate of melanin(%): 24.3%

## Cc1cccc(NC(=O)c2ccc(C#N)cc2)c1 [A1/B7, 4-cyano-N-m-tolylbenzamide]
[1]
  Reduction rate of melanin(%): 34.2%

## Cc1ccc(NC(=O)c2ccc(C)cc2)cc1 [A2/B3, 4-methyl-N-p-tolylbenzamide]
[1]
  Reduction rate of melanin(%): 8.6%

## Cc1ccc(C(=O)Nc2cc(C)cc(C)c2)cc1 [A3/B3, N-(3,5-dimethylphenyl)-4-methylbenzamide]
[1]
  Reduction rate of melanin(%): 35.8%

## CCc1ccc(C(=O)Nc2cc(C)cc(C)c2)cc1 [A3/B4, N-(3,5-dimethylphenyl)-4-ethylbenzamide]
[1]
  Reduction rate of melanin(%): 36.5%

## COc1cccc(C(=O)Nc2cc(C)cc(C)c2)c1 [A3/B5, N-(3,5-dimethylphenyl)-3-methoxybenzamide]
[1]
  Reduction rate of melanin(%): 48.7%
[2]
  reduction in melanin production content of melanocytes with respect to cell viability, as compared to a non-treated group: about 40%
[3]
  reduction in melanin production content of melanocytes with respect to cell viability, as compared to a non-treated group: about 20%
[4]; treated daily for 3 days, FIG. 2A
  expression level of TRP-2 protein as compared to non-treated group: significant reduction
[4]; treated only once on the first day of 3 consecutive days, FIG. 2B
  expression level of TRP-2 protein as compared to non-treated group: significant reduction
[5]
  inhibition on growth of A375 melanoma cells: inhibition on growth of A375 melanoma cells was increased
[6]
  size of injected B16F10 cell region versus phosphate buffer control: smaller
  weight of injected B16F10 cell region versus phosphate buffer control: smaller

## Cc1cc(C)cc(NC(=O)c2ccc(C#N)cc2)c1 [A3/B7, 4-cyano-N-(3,5-dimethylphenyl)benzamide]
[1]
  Reduction rate of melanin(%): 50.6%

## COc1ccccc1NC(=O)c1ccccc1C [A4/B1, N-(2-Methoxyphenyl)-2-methylbenzamide]
[1]
  Reduction rate of melanin(%): 17.7%

## COc1ccc(OC)c(NC(=O)c2ccccc2C)c1 [A8/B1, N-(2,5-Dimethoxyphenyl)-2-methylbenzamide]
[1]
  Reduction rate of melanin(%): 45.5%

## CC(=O)c1ccc(NC(=O)c2ccc(C)cc2)cc1 [A10/B3, N-(4-acetylphenyl)-4-methylbenzamide]
[1]
  Reduction rate of melanin(%): 10.4%

## CCCCOc1ccc(NC(=O)c2ccccc2C)cc1 [A11/B1, N-(4-Butoxyphenyl)-2-methylbenzamide]
[1]
  Reduction rate of melanin(%): 8.9%

## COC(=O)c1ccccc1NC(=O)c1ccc(C)cc1 [A12/B3, methyl 2-(4-methylbenzamido)benzoate]
[1]
  Reduction rate of melanin(%): 9.4%

## CCc1ccc(C(=O)Nc2ccccc2C(=O)OC)cc1 [A12/B4, methyl 2-(4-ethylbenzamido)benzoate]
[1]
  Reduction rate of melanin(%): 9.4%

## COC(=O)c1ccccc1NC(=O)c1ccc(OC)cc1 [A12/B6, methyl 2-(4-methoxybenzamido)benzoate]
[1]
  Reduction rate of melanin(%): 39.0%

## COC(=O)c1ccc(NC(=O)c2cccc(C)c2)cc1 [A14/B2, Methyl 4-(3-methylbenzamido)benzoate]
[1]
  Reduction rate of melanin(%): 30.6%
